Data reported in ChEMBL document CHEMBL2396625 (Bioorg Med Chem Lett, 2013).

What was measured:
DLD-1 = experiment: Antimigratory activity against human DLD1 cells overexpressing PRL3 at 10 ug/ml after 20 hrs by crystal violet staining-based light microscopic analysis relative to control; format: functional; conditions: DLD-1, 20 h
[1] = Cytotoxicity against human DLD1 cells overexpressing PRL3 assessed as cell viability at 10 ug/ml after 24 hrs by WST-1 assay relative to control; format: cell-based; conditions: DLD-1 cells overexpressing PRL3, read-out: Activity
[2] = biological target: Protein tyrosine phosphatase type IVA 3 (Homo sapiens, UniProt O75365); experiment: Inhibition of human His6-tagged full length PRL3 assessed as inhibition of DiFMUP dephosphorylation at 5 ug/ml relative to control
Chain of Protein tyrosine phosphatase type IVA 3 (O75365 whole entry): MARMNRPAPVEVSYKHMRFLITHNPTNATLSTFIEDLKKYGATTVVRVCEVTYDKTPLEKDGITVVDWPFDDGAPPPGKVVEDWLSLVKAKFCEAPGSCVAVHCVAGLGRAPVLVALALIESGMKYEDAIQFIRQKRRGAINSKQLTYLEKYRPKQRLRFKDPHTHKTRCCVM

Question: With `O=C1NC(=S)S/C1=C\C=C\c1ccccc1` as the molecule, how does the inhibition at 10 µg/mL (DLD-1) read?
Answer: 81%

Question: What about the viability at 24 h, 10 ug/ml [1] of the same molecule?
Answer: 96.6%

Question: What about the inhibition [2] of the same molecule?
Answer: 37.4%

Question: With `O=C1NC(=O)/C(=C/C=C/c2ccccc2OCc2ccccc2Br)S1` as the molecule, how does the inhibition at 10 µg/mL (DLD-1) read?
Answer: 50%

Question: What about the viability at 24 h, 10 ug/ml [1] of the same molecule?
Answer: 37.7%

Question: And the inhibition [2]?
Answer: 22.5%

Question: With `O=C1NC(=S)S/C1=C\C=C\c1cc(Br)ccc1OCc1ccccc1Br` as the molecule, how does the inhibition at 10 µg/mL (DLD-1) read?
Answer: 71%

Question: And the viability at 24 h, 10 ug/ml [1]?
Answer: 72.3%

Question: And the inhibition [2]?
Answer: 40.3%

Question: What does the source list for `O=C1NC(=S)S/C1=C\C=C\c1ccccc1OCc1ccccc1`?
Answer: inhibition at 10 µg/mL (DLD-1): 65%; viability at 24 h, 10 ug/ml [1]: 87.9%; inhibition [2]: 49.5%

Question: With `COc1cccc(COc2ccccc2/C=C/C=C2\SC(=S)NC2=O)c1` as the molecule, how does the inhibition at 10 µg/mL (DLD-1) read?
Answer: 82%

Question: And the viability at 24 h, 10 ug/ml [1]?
Answer: 87.1%

Question: What about the inhibition [2] of the same molecule?
Answer: 52.9%

Question: With `COc1ccccc1/C=C/C=C1\SC(=S)NC1=O` as the molecule, how does the inhibition at 10 µg/mL (DLD-1) read?
Answer: 69%

Question: And the viability at 24 h, 10 ug/ml [1]?
Answer: 98.8%

Question: And the inhibition [2]?
Answer: 41.7%

Question: With `O=C1NC(=S)S/C1=C\C=C\c1ccccc1NC(=O)c1ccccc1` as the molecule, how does the inhibition at 10 µg/mL (DLD-1) read?
Answer: 68%

Question: What about the viability at 24 h, 10 ug/ml [1] of the same molecule?
Answer: 97.1%

Question: And the inhibition [2]?
Answer: 35.2%

Question: With `O=C1NC(=S)S/C1=C\C=C\c1ccccc1OCc1ccccc1Br` as the molecule, how does the inhibition at 10 µg/mL (DLD-1) read?
Answer: 78%

Question: And the viability at 24 h, 10 ug/ml [1]?
Answer: 78.8%

Question: And the inhibition [2]?
Answer: 63.1%

Question: What does the source list for `O=C1NC(=S)S/C1=C\C=C\c1ccccc1OS(=O)(=O)c1ccccc1`?
Answer: inhibition at 10 µg/mL (DLD-1): 80%; viability at 24 h, 10 ug/ml [1]: 83.1%; inhibition [2]: 64.2%

Question: For `O=C1NC(=S)S/C1=C\C=C\c1cccnc1`, which inhibition at 10 µg/mL (DLD-1) is on record?
Answer: 45%

Question: And the viability at 24 h, 10 ug/ml [1]?
Answer: 105%

Question: And the inhibition [2]?
Answer: 47.1%

Question: For `O=C1NC(=S)S/C1=C\C=C\c1ccccc1O`, which inhibition at 10 µg/mL (DLD-1) is on record?
Answer: 65%

Question: What about the viability at 24 h, 10 ug/ml [1] of the same molecule?
Answer: 96.3%

Question: What about the inhibition [2] of the same molecule?
Answer: 51.9%

Question: What does the source list for `O=C1NC(=S)S/C1=C\C=C\c1ccccc1OC(=O)c1ccccc1`?
Answer: inhibition at 10 µg/mL (DLD-1): 40%; viability at 24 h, 10 ug/ml [1]: 99.2%; inhibition [2]: 30.6%

Question: Which results are given for `O=C1NC(=S)S/C1=C\C=C\c1ccccc1Cl`?
Answer: inhibition at 10 µg/mL (DLD-1): 80%; viability at 24 h, 10 ug/ml [1]: 81.9%; inhibition [2]: 53.9%

Question: For `O=C1NC(=S)S/C1=C\C=C\c1ccccc1OCc1ccccc1C(F)(F)F`, which inhibition at 10 µg/mL (DLD-1) is on record?
Answer: 80%

Question: And the viability at 24 h, 10 ug/ml [1]?
Answer: 41.5%

Question: What about the inhibition [2] of the same molecule?
Answer: 40.8%

Question: For `Cc1ccccc1COc1ccccc1/C=C/C=C1\SC(=S)NC1=O`, which inhibition at 10 µg/mL (DLD-1) is on record?
Answer: 73%

Question: What about the viability at 24 h, 10 ug/ml [1] of the same molecule?
Answer: 75.5%

Question: What about the inhibition [2] of the same molecule?
Answer: 52.8%

Question: For `O=C1NC(=S)S/C1=C\C=C\c1ccccc1OCc1ccncc1`, which inhibition at 10 µg/mL (DLD-1) is on record?
Answer: 62%

Question: And the viability at 24 h, 10 ug/ml [1]?
Answer: 96.5%

Question: And the inhibition [2]?
Answer: 39.4%
